The target of one series is T1, OX1 (Homo sapiens, UniProt O43613).
T1 construct: expressed in transfected cells; host or cells: CHO (CHO-OX1, kept under selection antibiotic)
T1 sequence (O43613 1-425): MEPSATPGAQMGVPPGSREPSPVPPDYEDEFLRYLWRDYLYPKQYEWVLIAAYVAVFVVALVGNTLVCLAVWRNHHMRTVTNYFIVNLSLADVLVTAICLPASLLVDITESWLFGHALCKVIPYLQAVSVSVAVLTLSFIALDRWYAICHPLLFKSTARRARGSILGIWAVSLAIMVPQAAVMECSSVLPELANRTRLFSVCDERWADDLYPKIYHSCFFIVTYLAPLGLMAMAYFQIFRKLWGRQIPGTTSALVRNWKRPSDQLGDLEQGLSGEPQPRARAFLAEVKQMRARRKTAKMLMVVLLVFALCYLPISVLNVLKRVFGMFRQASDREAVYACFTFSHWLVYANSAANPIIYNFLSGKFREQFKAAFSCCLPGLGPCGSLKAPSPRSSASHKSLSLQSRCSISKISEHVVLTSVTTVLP
In words: Orexin receptor cell-based functional assay, [Ca2+]i by FLIPR, CHO-OX1 cells. The conditions noted are these: CHO-OX1 cells, [Ca2+]i by FLIPR, antagonist dose-range 0.1 nM-10 μM, EC90 of OXA; read-out: OX1. Summed up:
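CHO cells expressing human OX1 or OX2 loaded with calcium dye plus 2.5 mM probenecid at 37° C (calcium4, 30 min, or calcium6, 2 h), then exposed to compounds (0.1 nM-10 μM) for 30 min. Intracellular Ca2+ measured on FLIPR; antagonist format.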

The target in another series is T2, CYP3A4 (Homo sapiens, UniProt P08684).
T2 construct: pre-incubated with human liver microsomes and NADPH; from tissue; host or cells: human liver microsomes
In words: Cytochrome P450 inhibition assay (midazolam hydroxylation). It is filed as in vitro ADME. The following applies: human, human liver microsomes, probe midazolam (hydroxylation to 1′-hydroxymidazolam), 10 μM test compound, midazolam at approximately its Km. Put shortly:
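Human liver microsomes; CYP3A4 activity as midazolam 1′-hydroxylation with substrate near Km, with or without 10 μM test compound, read as percent inhibition. For time-dependent inhibition, parallel samples were preincubated 30 min with NADPH before substrate, and percent inhibition compared with non-preincubated samples.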
A general note: Liver microsomes are vesicles of endoplasmic reticulum, rich in cytochrome P450 enzymes.

The term inhibition denotes the drop in the measured response relative to a control, in per cent. Read a low inhibition as little suppression.

Each structure is given as a SMILES string.

T2 sequence (P08684 whole entry): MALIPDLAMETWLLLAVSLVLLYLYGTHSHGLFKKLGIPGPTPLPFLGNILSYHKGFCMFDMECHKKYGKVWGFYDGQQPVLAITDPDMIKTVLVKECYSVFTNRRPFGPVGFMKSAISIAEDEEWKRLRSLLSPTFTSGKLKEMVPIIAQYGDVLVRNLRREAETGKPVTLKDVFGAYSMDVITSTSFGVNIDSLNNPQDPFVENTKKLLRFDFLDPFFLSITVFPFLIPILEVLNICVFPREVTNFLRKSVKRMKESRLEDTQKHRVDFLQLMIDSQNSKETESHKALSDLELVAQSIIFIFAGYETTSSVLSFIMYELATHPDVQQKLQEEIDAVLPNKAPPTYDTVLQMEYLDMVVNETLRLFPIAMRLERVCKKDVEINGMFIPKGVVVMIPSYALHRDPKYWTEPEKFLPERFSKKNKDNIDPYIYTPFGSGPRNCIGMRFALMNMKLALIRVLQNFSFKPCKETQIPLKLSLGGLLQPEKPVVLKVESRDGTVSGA

Consider `Cc1ccc(-c2ccccn2)c(C(=O)N2CCC[C@@H](C)[C@H]2CNc2ccc(Cl)cn2)c1` [Example A117, ((2S,3R)-2-(((5-chloropyridin-2-yl)amino)methyl)-3-methylpiperidin-1-yl)(5-methyl-2-(pyridin-2-yl)phenyl)methanone], for which, on OX1, the IC50 was 37 nM. The compound also returned an inhibition at 10 µM against CYP3A4 of 92%.

With `C[C@@H]1CCCN(C(=O)c2c(F)cccc2-n2nccn2)[C@@H]1CNc1ncc(C(F)(F)F)cn1` [Example A259, (2-Fluoro-6-(2H-1,2,3-triazol-2-yl)phenyl)((2S,3R)-3-methyl-2-(((5-(trifluoromethyl)pyrimidin-2-yl)amino)methyl)piperidin-1-yl)methanone], the IC50 on OX1 came to 9 nM. Moreover, at CYP3A4, the inhibition at 10 µM worked out at 37%.

For the compound `Cc1ccc(-n2nccn2)c(C(=O)N2CCC[C@@H](C)[C@H]2CNc2ncc(F)cn2)c1` [Example A171, ((2S,3R)-2-(((5-Fluoropyrimidin-2-yl)amino)methyl)-3-methylpiperidin-1-yl)(5-methyl-2-(2H-1,2,3-triazol-2-yl)phenyl)methanone], the IC50 on OX1 was determined as 370 nM. The same compound returned an inhibition at 10 µM against CYP3A4 of 36%.

With `C[C@@H]1CCCN(C(=O)c2c(F)cccc2-n2nccn2)[C@@H]1CNc1ccc(C(F)(F)F)cn1` [Example A258, (2-Fluoro-6-(2H-1,2,3-triazol-2-yl)phenyl)((2S,3R)-3-methyl-2-(((5-(trifluoromethyl)pyridin-2-yl)amino)methyl)piperidin-1-yl)methanone], at OX1, the IC50 worked out at 4 nM. The compound also displayed an inhibition at 10 µM at CYP3A4 of 69%.

With `Cc1ccc(-n2ncc(C)n2)c(C(=O)N2CCC[C@@H](C)[C@H]2CNc2ccc(F)cn2)c1` [Example A142, ((2S,3R)-2-(((5-Fluoropyridin-2-yl)amino)methyl)-3-methylpiperidin-1-yl)(5-methyl-2-(4-methyl-2H-1,2,3-triazol-2-yl)phenyl)methanone], the IC50 on OX1 was found to be 51 nM. In addition, the inhibition at 10 µM against CYP3A4 was found to be 74%.

For `Cc1ccc(NC[C@@H]2[C@H](C)CCCN2C(=O)c2cc(C)ccc2-c2ccccn2)nc1` [Example A59, ((2S,3R)-3-Methyl-2-(((5-methylpyridin-2-yl)amino)methyl)piperidin-1-yl)(5-methyl-2-(pyridin-2-yl)phenyl)methanone], the IC50 on OX1 turned out to be 50 nM. In addition, on CYP3A4, testing at 10 µM gave an inhibition of 87%.

For `Cc1ccc(-n2ncc(C)n2)c(C(=O)N2CCC[C@@H](C)[C@H]2CNc2ccc(C(F)(F)F)cn2)c1` [Example A112, ((2S,3R)-3-Methyl-2-(((5-(trifluoromethyl)pyridin-2-yl)amino)methyl)piperidin-1-yl)(5-methyl-2-(4-methyl-2H-1,2,3-triazol-2-yl)phenyl)methanone], the IC50 at OX1 came to 2 nM. For the same compound, on CYP3A4, 10 µM produced 84% inhibition.

For the compound `Cc1ccc(-n2nccn2)c(C(=O)N2CCC[C@@H](C)[C@H]2CNc2cccc(C)n2)c1` [Example A79, ((2S,3R)-3-Methyl-2-(((6-methylpyridin-2-yl)amino)methyl)piperidin-1-yl)(5-methyl-2-(2H-1,2,3-triazol-2-yl)phenyl)methanone], the IC50 at OX1 was determined as 310 nM. Moreover, 10 µM produced 5% inhibition at CYP3A4.

In the case of `Cc1ccc(-n2nccn2)c(C(=O)N2CCC[C@@H](C)[C@H]2CNc2ccc(C(F)(F)F)cn2)n1` [Example A174, ((2S,3R)-3-Methyl-2-(((5-(trifluoromethyl)pyridin-2-yl)amino)methyl)piperidin-1-yl)(6-methyl-3-(2H-1,2,3-triazol-2-yl)pyridin-2-yl)methanone], the IC50 on OX1 is 1 nM. Moreover, the inhibition at 10 µM against CYP3A4 stood at 51%.

Consider `COc1ccnc(-c2ccc(C)cc2C(=O)N2CCC[C@@H](C)[C@H]2CNc2ccc(C(F)(F)F)cn2)n1` [Example A21, (2-(4-Methoxypyrimidin-2-yl)-5-methylphenyl)((2S,3R)-3-methyl-2-(((5-(trifluoromethyl)pyridin-2-yl)amino)methyl)piperidin-1-yl)methanone], for which the IC50 on OX1 was 13 nM. This compound also showed an inhibition at 10 µM on CYP3A4 of 89%.

For the compound `Cc1ccc(C(=O)N2CCC[C@@H](C)[C@H]2CNc2ccc(C(F)(F)F)cn2)c(-c2ncccn2)c1F` [Example A358, (3-fluoro-4-methyl-2-(pyrimidin-2-yl)phenyl)((2S,3R)-3-methyl-2-(((5-(trifluoromethyl)pyridin-2-yl)amino)methyl)piperidin-1-yl)methanone], the IC50 at OX1 worked out at 5 nM. Further, 10 µM produced 83% inhibition against CYP3A4.

For the compound `Cc1ccc(-c2ccccn2)c(C(=O)N2CCC[C@@H](C)[C@H]2CNc2ncc(C(F)(F)F)cn2)n1` [Example A167, ((2S,3R)-3-Methyl-2-(((5-(trifluoromethyl)pyrimidin-2-yl)amino)methyl)piperidin-1-yl)(6′-methyl-[2,3′-bipyridin]-2′-yl)methanone], the IC50 on OX1 turned out to be 5 nM. Besides, on CYP3A4, the inhibition at 10 µM stood at 45%.

`Cc1ccc(-n2cccn2)c(C(=O)N2CCC[C@@H](C)[C@H]2CNc2ccc(C)nn2)c1` [Example A154, ((2S,3R)-3-Methyl-2-(((6-methylpyridazin-3-yl)amino)methyl)piperidin-1-yl)(5-methyl-2-(1H-pyrazol-1-yl)phenyl)methanone]: the IC50 at OX1 was > 1000 nM. The compound also came in with an inhibition at 10 µM against CYP3A4 of 43%.

On to `Cc1ccc(-c2ccn(C)c2)c(C(=O)N2CCC[C@@H](C)[C@H]2CNc2ccc(C(F)(F)F)cn2)c1` [Example A6, ((2S,3R)-3-Methyl-2-(((5-(trifluoromethyl)pyridin-2-yl)amino)methyl)piperidin-1-yl)(5-methyl-2-(1-methyl-1H-pyrrol-3-yl)phenyl)methanone], for which the IC50 on OX1 was 13 nM. Moreover, at CYP3A4, the inhibition at 10 µM is 85%.

Regarding `COc1cccnc1NC[C@@H]1[C@H](C)CCCN1C(=O)c1cc(C)ccc1-n1nccn1` [Example A98, ((2S,3R)-2-(((3-Methoxypyridin-2-yl)amino)methyl)-3-methylpiperidin-1-yl)(5-methyl-2-(2H-1,2,3-triazol-2-yl)phenyl)methanone], the IC50 on OX1 was determined as 270 nM. Also, at CYP3A4, 10 µM produced 48% inhibition.

Turning to `C[C@@H]1CCCN(C(=O)c2ccccc2-c2ncccn2)[C@@H]1CNc1ncc(C(F)(F)F)cn1` [Example A317, ((2S,3R)-3-Methyl-2-(((5-(trifluoromethyl)pyrimidin-2-yl)amino)methyl)piperidin-1-yl)(2-(pyrimidin-2-yl)phenyl)methanone], the IC50 at OX1 turned out to be 1 nM. 10 µM produced 46% inhibition on CYP3A4.

In the case of `Cc1ccc(-n2nccn2)c(C(=O)N2CCC[C@@H](C)[C@H]2CNc2ccc(C#N)cn2)n1` [Example A189, 6-((((2S,3R)-3-Methyl-1-(6-methyl-3-(2H-1,2,3-triazol-2-yl)picolinoyl)piperidin-2-yl)methyl)amino)nicotinonitrile], the IC50 on OX1 turned out to be 120 nM. Besides, the inhibition at 10 µM against CYP3A4 was 37%.

In the case of `Cc1ccc(-n2ccc(C)n2)c(C(=O)N2CCC[C@@H](C)[C@H]2CNc2nc3cc(Cl)ccc3o2)c1` [Example A115, ((2S,3R)-2-(((5-Chlorobenzo[d]oxazol-2-yl)amino)methyl)-3-methylpiperidin-1-yl)(5-methyl-2-(3-methyl-1H-pyrazol-1-yl)phenyl)methanone], the IC50 at OX1 amounted to 16 nM. On CYP3A4, this compound yielded an inhibition at 10 µM of 90%.

Take `Cc1ccc(-n2nccn2)c(C(=O)N2CCC[C@@H](C)[C@H]2CNc2ncc(C#N)cn2)n1` [Example A190, 2-((((2S,3R)-3-Methyl-1-(6-methyl-3-(2H-1,2,3-triazol-2-yl)picolinoyl)piperidin-2-yl)methyl)amino)pyrimidine-5-carbonitrile]: the IC50 on OX1 turned out to be 2000 nM. Moreover, the inhibition at 10 µM against CYP3A4 was found to be 24%.

Regarding `Cc1ccc(-n2cc(C)cn2)c(C(=O)N2CCC[C@@H](C)[C@H]2CNc2ccc(C(F)(F)F)cn2)c1` [Example A107, ((2S,3R)-3-Methyl-2-(((5-(trifluoromethyl)pyridin-2-yl)amino)methyl)piperidin-1-yl)(5-methyl-2-(4-methyl-1H-pyrazol-1-yl)phenyl)methanone], at OX1, the IC50 turned out to be 4 nM. Further, the inhibition at 10 µM on CYP3A4 turned out to be 91%.

As to `Cc1ccc(-n2nccn2)c(C(=O)N2CCC[C@@H](C)[C@H]2CNc2nc3ccc(Cl)cc3o2)c1` [Example A14, ((2S,3R)-2-(((6-Chlorobenzo[d]oxazol-2-yl)amino)methyl)-3-methylpiperidin-1-yl)(5-methyl-2-(2H-1,2,3-triazol-2-yl)phenyl)methanone], on OX1, the IC50 worked out at 10 nM. Besides, at CYP3A4, the inhibition at 10 µM worked out at 80%.

As to `Cc1ccc(-c2ncccn2)c(C(=O)N2CCC[C@@H](C)[C@H]2CNc2nc3cc(Cl)ccc3o2)c1` [Example A205, ((2S,3R)-2-(((5-Chlorobenzo[d]oxazol-2-yl)amino)methyl)-3-methylpiperidin-1-yl)(5-methyl-2-(pyrimidin-2-yl)phenyl)methanone], on OX1, the IC50 was 11 nM. On CYP3A4, this compound yielded an inhibition at 10 µM of 72%.

The record behind these values is patent US9440982B2 (Eolas Therapeutics, Inc., priority 2012, dated 2016).
